Assay results: patent publication US20260365663A1, “EMOPAMIL-BINDING PROTEIN INHIBITORS AND USES THEREOF” (BIOGEN MA INC., priority 2022, published 2026)
Read-outs that look alike come from different tables or passages of the source.

Target: T1, EBP (Homo sapiens, UniProt Q15125)
T1 construct: HEK293T cells were utilized as the source of EBP enzyme; endogenous in cells; host or cells: HEK293T
Experiment: EBP Functional Assay (EBP immunoaffinity LC-MS assay)
Type: biochemical
Description: The EBP immunoaffinity (IA) LC-MS assay measures the potency of small molecule inhibitors of EBP by quantifying their concentration-dependent changes in the enzyme's substrate and product using liquid chromatography atmospheric pressure chemical ionization multiple reaction monitoring mass spectrometry (LC-APCI MRM MS). HEK293T cells were utilized as the source of EBP enzyme. The enzyme was incubated with the small molecule inhibitors at variable concentrations for 30 min. Deuterated form of EBP substrate, zymosterol-d5 (Avanti Polar Lipids, Cat #700068P-1 mg), was then added and the plate was incubated at 37 °C for 4 h. Finally, the sterol isomers were extracted and injected to LC-APCI MRM MS. MRM transition used for the quantification for both zymosterol and dihydrolathosterol (substrate and product of EBP enzymatic reaction, respectively) is 372.3-203.2, CE 30 and DP 80 in positive ion mode. Percent conversion of the zymosterol-d5 to dehydrolathosterol-d5 was used to derive IC50 curves. Tasin-1 (1′-[(4-Methoxyphenyl)sulfonyl]-4-methyl-1,4′-bipiperidine, CAS 792927-06-1) was used as the reference small molecule inhibitor.
Percent conversion versus the compound concentration data were fit to the following 4-parameter logistic model to generate IC50 curves: […]

[1] = HEK293T cells as source of EBP enzyme, zymosterol-d5 substrate, inhibitor 30 min, then 37 °C for 4 h, percent conversion to dehydrolathosterol-d5 by LC-APCI MRM MS, read-out: EBP Functional Assay

T1 sequence (Q15125 whole entry): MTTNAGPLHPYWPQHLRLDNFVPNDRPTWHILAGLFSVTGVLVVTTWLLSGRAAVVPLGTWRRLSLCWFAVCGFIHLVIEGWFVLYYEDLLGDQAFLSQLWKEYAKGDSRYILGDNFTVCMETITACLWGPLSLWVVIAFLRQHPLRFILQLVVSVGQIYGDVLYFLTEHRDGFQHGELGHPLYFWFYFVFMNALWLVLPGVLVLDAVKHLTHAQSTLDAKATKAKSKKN

Row | SMILES | IC50 [1] | IC50
1 | Cc1nc(C(F)(F)F)ccc1S(=O)(=O)N1CC2(CC[C@@H](N3CCOCC3)C2)C1 (single isomer, unassigned) [Example 60] | < 100 nM | –
2 | Cc1nc(C(F)(F)F)ccc1S(=O)(=O)N1CC2(CC[C@H](N3CCOCC3)C2)C1 (single isomer, unassigned) [Example 61] | 100 to 500 nM | –
3 | Cc1cc(C(F)(F)F)ncc1S(=O)(=O)N1CC2(CC[C@@H](N3CCOCC3)C2)C1 (single isomer, unassigned) [Example 62] | < 100 nM | –
4 | Cc1cc(C(F)(F)F)ncc1S(=O)(=O)N1CC2(CC[C@H](N3CCOCC3)C2)C1 (single isomer, unassigned) [Example 63] | 100 to 500 nM | –
5 | Cc1nc(Cl)ccc1S(=O)(=O)N1CC2(CC[C@@H](N3CCOCC3)C2)C1 (single isomer, unassigned) [Example 64] | < 100 nM | –
6 | Cc1nc(Cl)ccc1S(=O)(=O)N1CC2(CC[C@H](N3CCOCC3)C2)C1 (single isomer, unassigned) [Example 65] | 100 to 500 nM | –
7 | Cc1cc(S(=O)(=O)N2CC3(CC[C@@H](N4CCOCC4)C3)C2)n(C)n1 (single isomer, unassigned) [Example 66] | 100 to 500 nM | –
8 | Cc1cc(S(=O)(=O)N2CC3(CC[C@H](N4CCOCC4)C3)C2)n(C)n1 (single isomer, unassigned) [Example 67] | 500 to 3000 nM | –
9 | Cc1nc(C(C)(F)F)ccc1S(=O)(=O)N1CC2(CC(N3CC4(COC4)C3)C2)C1 [Example 1, 6-(2-((6-(1,1-Difluoroethyl)-2-methylpyridin-3-yl)sulfonyl)-2-azaspiro[3.3]heptan-6-yl)-2-oxa-6-azaspiro[3.3]heptane] | < 100 nM | –
10 | Cc1nc(C(C)(F)F)ccc1S(=O)(=O)N1CC2(CC(NC3CCOCC3)C2)C1 [Example 2, 2-((6-(1,1-Difluoroethyl)-2-methylpyridin-3-yl)sulfonyl)-N-(tetrahydro-2H-pyran-4-yl)-2-azaspiro[3.3]heptan-6-amine] | < 100 nM | –
11 | Cc1nc(C(F)(F)F)ccc1S(=O)(=O)N1CC2(CC(NC3CCOCC3)C2)C1 [Example 3, 2-((2-Methyl-6-(trifluoromethyl)pyridin-3-yl)sulfonyl)-N-(tetrahydro-2H-pyran-4-yl)-2-azaspiro[3.3]heptan-6-amine] | 100 to 500 nM | –
12 | Cc1nc(C(F)(F)F)ccc1S(=O)(=O)N1CC2(CC(N3CC4(COC4)C3)C2)C1 [Example 4, 6-(2-((2-Methyl-6-(trifluoromethyl)pyridin-3-yl)sulfonyl)-2-azaspiro[3.3]heptan-6-yl)-2-oxa-6-azaspiro[3.3]heptane] | – | 500 to 3000 nM
13 | Cc1nc(C(F)(F)F)ccc1S(=O)(=O)N1CC2(CC(N3CCOCC3)C2)C1 [Example 5, 4-(2-((2-Methyl-6-(trifluoromethyl)pyridin-3-yl)sulfonyl)-2-azaspiro[3.3]heptan-6-yl)morpholine] | 100 to 500 nM | –
14 | Cc1nc(C(F)(F)F)ccc1S(=O)(=O)N1CC2(CC(N3CC4(CCO4)C3)C2)C1 [Example 6, 6-(2-((2-Methyl-6-(trifluoromethyl)pyridin-3-yl)sulfonyl)-2-azaspiro[3.3]heptan-6-yl)-1-oxa-6-azaspiro[3.3]heptane] | – | 500 to 3000 nM
15 | Cc1nc(C(F)(F)F)ccc1S(=O)(=O)N1CC2(CC(NC3(C4CCOCC4)CC3)C2)C1 [Example 7, 2-((2-Methyl-6-(trifluoromethyl)pyridin-3-yl)sulfonyl)-N-(1-(tetrahydro-2H-pyran-4-yl)cyclopropyl)-2-azaspiro[3.3]heptan-6-amine] | 100 to 500 nM | –
16 | Cc1nc(C(F)(F)F)ccc1S(=O)(=O)N1CC2(CC(NC3COC3)C2)C1 [Example 8, 2-((2-Methyl-6-(trifluoromethyl)pyridin-3-yl)sulfonyl)-N-(oxetan-3-yl)-2-azaspiro[3.3]heptan-6-amine] | 500 to 3000 nM | –
17 | Cc1nc(C(F)(F)F)ccc1S(=O)(=O)N1CC2(CC(NCC3(C)COC3)C2)C1 [Example 9, 2-((2-Methyl-6-(trifluoromethyl)pyridin-3-yl)sulfonyl)-N-((3-methyloxetan-3-yl)methyl)-2-azaspiro[3.3]heptan-6-amine] | < 100 nM | –
18 | Cn1nc(C(F)(F)F)cc1S(=O)(=O)N1CC2(CC(N3CCOCC3)C2)C1 [Example 10, 4-(2-((1-Methyl-3-(trifluoromethyl)-1H-pyrazol-5-yl)sulfonyl)-2-azaspiro[3.3]heptan-6-yl)morpholine] | 100 to 500 nM | –

Row | SMILES | IC50 [1] | IC50
19 | Cn1nc(C(F)(F)F)cc1S(=O)(=O)N1CC2(CC(NCC3COC3)C2)C1 [Example 11, 2-((1-Methyl-3-(trifluoromethyl)-1H-pyrazol-5-yl)sulfonyl)-N-(oxetan-3-ylmethyl)-2-azaspiro[3.3]heptan-6-amine] | 100 to 500 nM | –
20 | Cn1nc(C(F)(F)F)cc1S(=O)(=O)N1CC2(CC(NCC3(C)COC3)C2)C1 [Example 12, 2-((1-Methyl-3-(trifluoromethyl)-1H-pyrazol-5-yl)sulfonyl)-N-((3-methyloxetan-3-yl)methyl)-2-azaspiro[3.3]heptan-6-amine] | < 100 nM | –
21 | Cn1nc(C(F)(F)F)cc1S(=O)(=O)N1CC2(CC(NC3COC3)C2)C1 [Example 13, 2-((1-Methyl-3-(trifluoromethyl)-1H-pyrazol-5-yl)sulfonyl)-N-(oxetan-3-yl)-2-azaspiro[3.3]heptan-6-amine] | 500 to 3000 nM | –
22 | Cn1nc(C(F)(F)F)cc1S(=O)(=O)N1CC2(CC(N3CC4(COC4)C3)C2)C1 [Example 14, 6-(2-((1-Methyl-3-(trifluoromethyl)-1H-pyrazol-5-yl)sulfonyl)-2-azaspiro[3.3]heptan-6-yl)-2-oxa-6-azaspiro[3.3]heptane] | – | 500 to 3000 nM
23 | Cn1nc(C(F)(F)F)cc1S(=O)(=O)N1CC2(CC(N3CC4(CCO4)C3)C2)C1 [Example 15, 6-(2-((1-Methyl-3-(trifluoromethyl)-1H-pyrazol-5-yl)sulfonyl)-2-azaspiro[3.3]heptan-6-yl)-1-oxa-6-azaspiro[3.3]heptane] | – | 500 to 3000 nM
24 | Cc1nc(C(F)(F)F)ncc1S(=O)(=O)N1CC2(CC(N3CC4(CCO4)C3)C2)C1 [Example 16, 6-(2-((4-Methyl-2-(trifluoromethyl)pyrimidin-5-yl)sulfonyl)-2-azaspiro[3.3]heptan-6-yl)-1-oxa-6-azaspiro[3.3]heptane] | 500 to 3000 nM | –
25 | Cc1nc(C(F)(F)F)ncc1S(=O)(=O)N1CC2(CC(N3CC4(COC4)C3)C2)C1 [Example 17, 6-(2-((4-Methyl-2-(trifluoromethyl)pyrimidin-5-yl)sulfonyl)-2-azaspiro[3.3]heptan-6-yl)-2-oxa-6-azaspiro[3.3]heptane] | – | > 3000 nM
26 | Cc1nc(C(F)(F)F)ccc1S(=O)(=O)NC1CC2(C1)CN(C1CCOCC1)C2 [Example 18, 2-Methyl-N-(2-(tetrahydro-2H-pyran-4-yl)-2-azaspiro[3.3]heptan-6-yl)-6-(trifluoromethyl)pyridine-3-sulfonamide] | 500 to 3000 nM | –
27 | CC(C)c1cc(S(=O)(=O)N2CC3(CC(N4CCOCC4)C3)C2)n(C)n1 [Example 19, 4-(2-((3-Isopropyl-1-methyl-1H-pyrazol-5-yl)sulfonyl)-2-azaspiro[3.3]heptan-6-yl)morpholine] | – | < 100 nM
28 | CC1CCN(C2CC3(C2)CN(S(=O)(=O)c2ccc(OC(F)F)cc2)C3)CC1 [Example 20, 2-((4-(Difluoromethoxy)phenyl)sulfonyl)-6-(4-methylpiperidin-1-yl)-2-azaspiro[3.3]heptane] | 500 to 3000 nM | –
29 | COc1ncc(C)cc1S(=O)(=O)N1CC2(CC(NC3CCOCC3)CO2)C1 (centres unmarked) [Example 21, 2-((2-Methoxy-5-methylpyridin-3-yl)sulfonyl)-N-(tetrahydro-2H-pyran-4-yl)-5-oxa-2-azaspiro[3.4]octan-7-amine] | 500 to 3000 nM | –
30 | COc1ncc(C)cc1S(=O)(=O)N1CC2(CC(N3CC4(COC4)C3)CO2)C1 (centres unmarked) [Example 22, 2-((2-Methoxy-5-methylpyridin-3-yl)sulfonyl)-7-(2-oxa-6-azaspiro[3.3]heptan-6-yl)-5-oxa-2-azaspiro[3.4]octane] | – | 500 to 3000 nM
31 | COc1ncc(C)cc1S(=O)(=O)N1CC2(CC(N3CC(OC)C3)CO2)C1 (centres unmarked) [Example 23, 2-((2-Methoxy-5-methylpyridin-3-yl)sulfonyl)-7-(3-methoxyazetidin-1-yl)-5-oxa-2-azaspiro[3.4]octane] | 500 to 3000 nM | –
32 | COc1ncc(C)cc1S(=O)(=O)N1CC2(CC(NC3CCC(F)(F)CC3)CO2)C1 (centres unmarked) [Example 24, N-(4,4-Difluorocyclohexyl)-2-((2-methoxy-5-methylpyridin-3-yl)sulfonyl)-5-oxa-2-azaspiro[3.4]octan-7-amine] | 100 to 500 nM | –
33 | COc1ncc(C)cc1S(=O)(=O)N1CC2(CC(NC3CC(F)(F)C3)CO2)C1 (centres unmarked) [Example 25, N-(3,3-Difluorocyclobutyl)-2-((2-methoxy-5-methylpyridin-3-yl)sulfonyl)-5-oxa-2-azaspiro[3.4]octan-7-amine] | 500 to 3000 nM | –
34 | N#Cc1ccc(F)c(S(=O)(=O)N2CC3(CC(NC4CCC(F)(F)CC4)CO3)C2)c1 (centres unmarked) [Example 26, 3-((7-((4,4-Difluorocyclohexyl)amino)-5-oxa-2-azaspiro[3.4]octan-2-yl)sulfonyl)-4-fluorobenzonitrile] | 500 to 3000 nM | –
35 | N#Cc1ccc(F)c(S(=O)(=O)N2CC3(CC(NC4CCOCC4)CO3)C2)c1 (centres unmarked) [Example 27, 4-Fluoro-3-((7-((tetrahydro-2H-pyran-4-yl)amino)-5-oxa-2-azaspiro[3.4]octan-2-yl)sulfonyl)benzonitrile] | 500 to 3000 nM | –
